Source: patent US8592172B2, “Bioluminescent assays using cyanobenzothiazole compounds” (Promega Corporation, priority 2010, dated 2013)

Experiments:
UGT 1A1 = target: T1, UGT 1A1 (Homo sapiens, UniProt P22309); test: Recombinant UGT panel, substrate utilization; format: biochemical; conditions: 2 hour incubation at 37° C., recombinant Supersomes, background corrected
T1 construct: purchased BD Gentest; host or cells: insect cells (microsomes)
T1 sequence (P22309 26-533): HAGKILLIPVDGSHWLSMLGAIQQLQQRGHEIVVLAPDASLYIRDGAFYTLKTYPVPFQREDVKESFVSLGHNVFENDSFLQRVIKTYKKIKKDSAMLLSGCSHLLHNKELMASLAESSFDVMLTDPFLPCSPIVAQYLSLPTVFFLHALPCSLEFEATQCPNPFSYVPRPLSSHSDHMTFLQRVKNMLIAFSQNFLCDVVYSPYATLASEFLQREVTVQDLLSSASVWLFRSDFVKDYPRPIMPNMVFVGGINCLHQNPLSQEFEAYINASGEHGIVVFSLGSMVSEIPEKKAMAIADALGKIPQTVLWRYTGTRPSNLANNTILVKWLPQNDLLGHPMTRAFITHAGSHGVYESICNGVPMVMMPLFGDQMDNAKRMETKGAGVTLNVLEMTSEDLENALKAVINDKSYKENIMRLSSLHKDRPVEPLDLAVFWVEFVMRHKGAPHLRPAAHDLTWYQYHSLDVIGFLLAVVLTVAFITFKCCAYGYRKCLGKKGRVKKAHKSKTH
Experimental: (§1) During this incubation, the cysteine reacts with the cyanobenzathiozole substrate to yield a D-luciferin derivative. […] Therefore, activity of the UGT enzyme can be measured by analyzing the difference (lower or no output) in relative light units (RLU) of a sample in which glucuronidation occurs compared to a sample that was run under the same conditions with no added UDPGA cofactor.
(§2) In this example, a series of 12 recombinant UGTs expressed in insect microsomes (Supersomes™, BD Gentest™), as well as the control microsomes not expressing the UGT enzyme, were incubated with compound 3138, compound 3478, or compound 3165 as substrates, with or without the UDPGA co-factor.
(§3) After addition of a luciferin detection reagent (LDR) containing D-cysteine, both the substrate and the product were converted to D-luciferins (compound 3478 is already a luciferin derivative before addition of the LDR).
(§4) Reactions were assembled in a white, 96-well plate. Each well contained 20 μL of reaction mixture comprised of 100 mM TES, pH 7.5, 16 mM MgCl2, 50 μg/mL alamethicin (Sigma), 60 μM compound 3138 or compound 3478, and 0.4 mg/mL of control or recombinant UGT membranes. The reactions were initiated by addition of 20 μL of water or 8 mM triammonium UDPGA (Sigma) to each well. The plate was mixed, sealed, and incubated in a 37° C. water bath for 2 hours. After the incubation, 40 μL P450-Glo LDR (Promega) with 20 mM D-cysteine-HCl.H2O (Sigma) was added to each well, the plate was mixed and allowed to incubate at room temperature for 20 minutes. After the incubation was completed, the plate was read on a Veritas™ luminometer (Turner BioSystems, Inc.; Sunnyvale, Calif.).
(§5) For each isozyme, the bioluminescence from the replicates containing UDPGA were subtracted from the average bioluminescence of the replicates without UDPGA. The average Δ RLU value obtained and the standard deviation of the replicates were then divided by the average bioluminescence for samples without UDPGA to obtain the % utilization for each isozyme. The % utilization obtained from the control microsomes was then subtracted from each isozyme to give the background corrected utilization data for those isozymes.

UGT 1A10 = target: T2, UGT 1A10 (Homo sapiens, UniProt Q9HAW8); test: Recombinant UGT panel, substrate utilization; format: biochemical; conditions: 2 hour incubation at 37° C., recombinant Supersomes, background corrected
T2 construct: purchased BD Gentest; host or cells: insect cells (microsomes)
Experimental: as §1, §2, §3, §4, §5

UGT 1A3 = target: T3, UGT 1A3 (Homo sapiens, UniProt P35503); test: Recombinant UGT panel, substrate utilization; format: biochemical; conditions: 2 hour incubation at 37° C., recombinant Supersomes
T3 construct: purchased BD Gentest; host or cells: insect cells (microsomes)
Experimental: as §1, §2, §3, §4, §5

UGT 1A4 = target: T4, UGT 1A4 (Homo sapiens, UniProt P22310); test: Recombinant UGT panel, substrate utilization; format: biochemical; conditions: 2 hour incubation at 37° C., recombinant Supersomes
T4 construct: purchased BD Gentest; host or cells: insect cells (microsomes)
T4 sequence (P22310 29-534): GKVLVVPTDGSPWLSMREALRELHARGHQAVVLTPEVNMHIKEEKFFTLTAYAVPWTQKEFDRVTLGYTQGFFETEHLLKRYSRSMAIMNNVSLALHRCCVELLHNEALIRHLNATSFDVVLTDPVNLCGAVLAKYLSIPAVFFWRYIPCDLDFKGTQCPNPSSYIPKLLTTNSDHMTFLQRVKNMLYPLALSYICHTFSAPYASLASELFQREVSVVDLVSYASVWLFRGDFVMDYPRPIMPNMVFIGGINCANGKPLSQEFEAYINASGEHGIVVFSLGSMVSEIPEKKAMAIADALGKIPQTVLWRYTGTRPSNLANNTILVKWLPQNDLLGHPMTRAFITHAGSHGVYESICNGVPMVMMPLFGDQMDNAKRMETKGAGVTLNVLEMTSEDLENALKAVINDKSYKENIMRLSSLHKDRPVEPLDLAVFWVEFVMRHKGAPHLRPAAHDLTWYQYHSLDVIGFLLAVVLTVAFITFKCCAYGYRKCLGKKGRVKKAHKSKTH
Experimental: as §1, §2, §3, §4, §5

UGT 1A6 = target: T5, UGT 1A6 (Homo sapiens, UniProt P19224); test: Recombinant UGT panel, substrate utilization; format: biochemical; conditions: 2 hour incubation at 37° C., recombinant Supersomes
T5 construct: purchased BD Gentest; host or cells: insect cells (microsomes)
Experimental: as §1, §2, §3, §4, §5

UGT 1A7 = target: T6, UGT 1A7 (Homo sapiens, UniProt Q9HAW7); test: Recombinant UGT panel, substrate utilization; format: biochemical; conditions: 2 hour incubation at 37° C., recombinant Supersomes
T6 construct: purchased BD Gentest; host or cells: insect cells (microsomes)
Experimental: as §1, §2, §3, §4, §5

UGT 1A8 = target: T7, UGT 1A8 (Homo sapiens, UniProt Q9HAW9); test: Recombinant UGT panel, substrate utilization; format: biochemical; conditions: 2 hour incubation at 37° C., recombinant Supersomes, background corrected
T7 construct: purchased BD Gentest; host or cells: insect cells (microsomes)
Experimental: as §1, §2, §3, §4, §5

UGT 1A9 = target: T8, UGT 1A9 (Homo sapiens, UniProt O60656); test: Recombinant UGT panel, substrate utilization; format: biochemical; conditions: 2 hour incubation at 37° C., recombinant Supersomes, background corrected
T8 construct: purchased BD Gentest; host or cells: insect cells (microsomes)
T8 sequence (O60656 26-530): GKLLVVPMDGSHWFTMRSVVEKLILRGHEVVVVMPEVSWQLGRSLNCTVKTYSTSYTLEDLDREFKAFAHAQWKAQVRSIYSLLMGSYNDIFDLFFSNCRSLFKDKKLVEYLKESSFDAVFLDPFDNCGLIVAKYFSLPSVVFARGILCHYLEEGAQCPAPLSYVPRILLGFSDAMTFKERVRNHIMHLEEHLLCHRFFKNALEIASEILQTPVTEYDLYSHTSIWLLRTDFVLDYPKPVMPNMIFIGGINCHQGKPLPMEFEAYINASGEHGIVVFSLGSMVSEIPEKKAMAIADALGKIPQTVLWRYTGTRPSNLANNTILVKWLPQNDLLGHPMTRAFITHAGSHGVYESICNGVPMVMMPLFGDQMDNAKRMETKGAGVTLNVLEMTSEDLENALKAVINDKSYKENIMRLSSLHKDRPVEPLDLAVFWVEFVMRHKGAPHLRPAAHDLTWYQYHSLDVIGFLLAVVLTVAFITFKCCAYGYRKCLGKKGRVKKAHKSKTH
Experimental: as §1, §2, §3, §4, §5

UGT 2B15 = target: T9, UGT 2B15 (Homo sapiens, UniProt P54855); test: Recombinant UGT panel, substrate utilization; format: biochemical; conditions: 2 hour incubation at 37° C., recombinant Supersomes
T9 construct: purchased BD Gentest; host or cells: insect cells (microsomes)
Experimental: as §1, §2, §3, §4, §5

UGT 2B17 = target: T10, UGT 2B17 (Homo sapiens, UniProt O75795); test: Recombinant UGT panel, substrate utilization; format: biochemical; conditions: 2 hour incubation at 37° C., recombinant Supersomes
T10 construct: purchased BD Gentest; host or cells: insect cells (microsomes)
Experimental: as §1, §2, §3, §4, §5

UGT 2B4 = target: T11, UGT 2B4 (Homo sapiens, UniProt P06133); test: Recombinant UGT panel, substrate utilization; format: biochemical; conditions: 2 hour incubation at 37° C., recombinant Supersomes
T11 construct: purchased BD Gentest; host or cells: insect cells (microsomes)
Experimental: as §1, §2, §3, §4, §5

[1] = tested on: endogenously expressed UGT isozymes in mammalian microsomes; test: Utilization of compound 3138 by mammalian tissue microsomes; format: biochemical; conditions: 50 μM compound 3138, 0.1 mg/mL mammalian microsomes, 15 minutes at 37° C.
Experimental: (§6) The ability of endogenously expressed UGT isozymes to utilize compounds 3138 and 3165 as substrates was determined in a similar manner to the assays with recombinant microsomes (Example 1). […] Tissue microsomes were obtained from Xenotech LLC or BD Gentest. Addition of P450-Glo LDR plus cysteine and data analysis was performed in the same manner as for the recombinant Supersome panel screen (Example 1 above).

[2] = tested on: UGT isozymes in human hepatocytes; conditions: compound 3138, 15-20 minutes at 37° C.
UGT 2B7 = UGT 2B7 (Homo sapiens, UniProt P16662); test: Recombinant UGT panel, substrate utilization; format: biochemical; parameters: purchased BD Gentest; host or cells: insect cells (microsomes); conditions: 2 hour incubation at 37° C., recombinant Supersomes, background corrected
Experimental: as §1, §2, §3
Reactions were assembled in a white, 96-well plate. Each well contained 20 μL of reaction mixture comprised of 100 mM TES, pH 7.5, 16 mM MgCl2, 50 μg/mL alamethicin (Sigma), 60 μM compound 3138 or compound 3478, and 0.4 mg/mL of control or recombinant UGT membranes. The reactions were initiated by addition of 20 μL of water or 8 mM triammonium UDPGA (Sigma) to each well. […] After the incubation was completed, the plate was read on a Veritas™ luminometer (Turner BioSystems, Inc.; Sunnyvale, Calif.). […]

human liver microsomes = test: Utilization of compound 3165 by human microsomes; format: biochemical; conditions: 50 μM compound 3165, 0.2 mg/mL microsomes, 2 hours at 37° C.
Experimental: as §6

rat liver microsomes = test: Utilization of compound 3165 by rat liver microsomes; format: biochemical; conditions: 50 μM compound 3165, 0.2 mg/mL microsomes, 2 hours at 37° C.
Experimental: as §6

mouse liver microsomes = test: Utilization of compound 3165 by mouse liver microsomes; format: biochemical; conditions: 50 μM compound 3165, 0.2 mg/mL microsomes, 2 hours at 37° C.
Experimental: as §6

T10 sequence (O75795 24-530): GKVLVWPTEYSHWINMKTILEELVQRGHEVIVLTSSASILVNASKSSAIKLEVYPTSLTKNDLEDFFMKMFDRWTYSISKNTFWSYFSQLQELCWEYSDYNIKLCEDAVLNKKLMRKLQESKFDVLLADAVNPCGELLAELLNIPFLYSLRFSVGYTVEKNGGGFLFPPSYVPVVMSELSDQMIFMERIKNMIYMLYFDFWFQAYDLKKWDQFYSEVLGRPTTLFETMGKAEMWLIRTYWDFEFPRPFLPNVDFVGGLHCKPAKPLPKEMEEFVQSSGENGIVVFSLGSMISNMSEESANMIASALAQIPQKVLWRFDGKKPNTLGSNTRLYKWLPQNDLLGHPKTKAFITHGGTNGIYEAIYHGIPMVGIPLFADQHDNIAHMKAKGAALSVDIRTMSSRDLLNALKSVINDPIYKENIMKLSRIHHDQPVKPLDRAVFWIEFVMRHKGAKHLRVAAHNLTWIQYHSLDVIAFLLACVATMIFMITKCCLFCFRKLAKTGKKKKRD
T9 sequence (P54855 24-530): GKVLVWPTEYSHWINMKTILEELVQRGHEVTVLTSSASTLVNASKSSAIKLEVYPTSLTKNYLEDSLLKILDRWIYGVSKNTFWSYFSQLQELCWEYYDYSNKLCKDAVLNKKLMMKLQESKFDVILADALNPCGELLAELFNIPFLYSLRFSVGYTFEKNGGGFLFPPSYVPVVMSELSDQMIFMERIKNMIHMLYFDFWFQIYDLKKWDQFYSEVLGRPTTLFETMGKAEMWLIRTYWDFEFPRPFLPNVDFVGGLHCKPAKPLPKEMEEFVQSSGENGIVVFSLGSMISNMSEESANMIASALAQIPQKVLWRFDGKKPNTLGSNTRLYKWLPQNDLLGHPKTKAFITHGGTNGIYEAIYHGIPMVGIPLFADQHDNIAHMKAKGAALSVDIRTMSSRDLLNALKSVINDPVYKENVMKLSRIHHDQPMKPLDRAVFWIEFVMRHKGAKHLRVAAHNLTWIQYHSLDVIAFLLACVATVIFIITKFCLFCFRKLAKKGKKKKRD
T3 sequence (P35503 29-534): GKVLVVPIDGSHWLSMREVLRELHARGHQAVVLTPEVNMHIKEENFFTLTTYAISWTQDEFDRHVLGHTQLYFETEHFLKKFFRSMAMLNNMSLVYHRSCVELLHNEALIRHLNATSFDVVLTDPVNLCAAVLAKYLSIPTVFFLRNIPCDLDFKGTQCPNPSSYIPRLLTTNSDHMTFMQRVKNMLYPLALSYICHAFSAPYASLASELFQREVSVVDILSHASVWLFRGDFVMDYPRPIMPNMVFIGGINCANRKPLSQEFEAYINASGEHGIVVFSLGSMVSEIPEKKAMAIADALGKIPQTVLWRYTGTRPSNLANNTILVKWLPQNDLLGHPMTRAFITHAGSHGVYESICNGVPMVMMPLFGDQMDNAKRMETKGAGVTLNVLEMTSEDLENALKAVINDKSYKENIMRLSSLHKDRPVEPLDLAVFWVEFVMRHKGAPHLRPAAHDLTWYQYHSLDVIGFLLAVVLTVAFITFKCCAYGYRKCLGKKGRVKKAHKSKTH
T5 sequence (P19224 27-532): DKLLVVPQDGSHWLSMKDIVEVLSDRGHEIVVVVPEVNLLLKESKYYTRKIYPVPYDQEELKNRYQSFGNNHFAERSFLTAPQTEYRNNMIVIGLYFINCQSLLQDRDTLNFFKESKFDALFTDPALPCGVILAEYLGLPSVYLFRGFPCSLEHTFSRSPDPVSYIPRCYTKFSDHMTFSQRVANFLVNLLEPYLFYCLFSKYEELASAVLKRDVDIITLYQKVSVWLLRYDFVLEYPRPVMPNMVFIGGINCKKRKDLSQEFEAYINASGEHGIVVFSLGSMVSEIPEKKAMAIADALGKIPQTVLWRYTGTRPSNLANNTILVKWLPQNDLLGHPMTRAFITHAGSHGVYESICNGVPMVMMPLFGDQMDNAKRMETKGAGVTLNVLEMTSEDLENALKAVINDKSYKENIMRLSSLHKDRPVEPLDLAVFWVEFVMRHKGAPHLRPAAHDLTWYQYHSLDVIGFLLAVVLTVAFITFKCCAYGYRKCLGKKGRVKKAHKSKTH
T2 sequence (Q9HAW8 26-530): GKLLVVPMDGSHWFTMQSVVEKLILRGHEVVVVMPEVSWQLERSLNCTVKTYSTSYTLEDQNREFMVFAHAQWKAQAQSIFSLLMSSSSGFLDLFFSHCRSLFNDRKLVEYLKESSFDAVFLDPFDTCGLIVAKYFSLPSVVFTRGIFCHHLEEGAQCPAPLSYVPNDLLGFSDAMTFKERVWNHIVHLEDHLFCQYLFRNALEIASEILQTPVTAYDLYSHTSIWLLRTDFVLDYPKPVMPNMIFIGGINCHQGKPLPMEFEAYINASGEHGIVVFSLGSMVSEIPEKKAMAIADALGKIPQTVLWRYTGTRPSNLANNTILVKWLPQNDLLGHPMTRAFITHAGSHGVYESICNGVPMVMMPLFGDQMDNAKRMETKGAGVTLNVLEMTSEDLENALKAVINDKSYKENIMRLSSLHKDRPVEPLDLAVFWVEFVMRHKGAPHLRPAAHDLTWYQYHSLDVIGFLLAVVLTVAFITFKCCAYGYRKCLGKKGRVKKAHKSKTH
T7 sequence (Q9HAW9 26-530): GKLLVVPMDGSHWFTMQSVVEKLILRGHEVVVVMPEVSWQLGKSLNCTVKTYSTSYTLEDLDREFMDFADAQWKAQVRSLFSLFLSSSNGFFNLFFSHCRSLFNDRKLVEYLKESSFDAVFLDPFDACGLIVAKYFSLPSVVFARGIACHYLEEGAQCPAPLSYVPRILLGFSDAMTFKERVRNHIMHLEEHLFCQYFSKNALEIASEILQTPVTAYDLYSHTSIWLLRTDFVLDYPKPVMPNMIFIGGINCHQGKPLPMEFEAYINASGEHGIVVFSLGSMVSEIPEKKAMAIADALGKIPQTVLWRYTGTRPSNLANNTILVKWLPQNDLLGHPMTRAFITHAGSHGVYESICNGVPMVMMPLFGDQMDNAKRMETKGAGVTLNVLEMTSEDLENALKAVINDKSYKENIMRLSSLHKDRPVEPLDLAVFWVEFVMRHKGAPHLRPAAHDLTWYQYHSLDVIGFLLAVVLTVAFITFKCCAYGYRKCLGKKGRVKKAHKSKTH
T11 sequence (P06133 24-528): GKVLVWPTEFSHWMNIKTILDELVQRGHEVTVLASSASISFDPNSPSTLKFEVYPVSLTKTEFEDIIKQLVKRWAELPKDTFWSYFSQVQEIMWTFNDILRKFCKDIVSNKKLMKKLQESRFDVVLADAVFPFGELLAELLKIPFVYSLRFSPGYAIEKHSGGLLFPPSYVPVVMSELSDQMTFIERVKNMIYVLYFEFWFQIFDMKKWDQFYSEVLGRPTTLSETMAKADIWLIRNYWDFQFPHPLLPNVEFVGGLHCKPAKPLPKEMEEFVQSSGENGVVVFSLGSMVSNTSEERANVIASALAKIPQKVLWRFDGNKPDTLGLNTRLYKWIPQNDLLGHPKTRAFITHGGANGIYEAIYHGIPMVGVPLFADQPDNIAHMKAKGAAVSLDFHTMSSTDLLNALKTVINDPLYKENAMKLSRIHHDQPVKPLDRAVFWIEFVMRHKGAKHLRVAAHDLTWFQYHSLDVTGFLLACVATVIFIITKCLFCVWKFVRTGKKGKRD
T6 sequence (Q9HAW7 26-530): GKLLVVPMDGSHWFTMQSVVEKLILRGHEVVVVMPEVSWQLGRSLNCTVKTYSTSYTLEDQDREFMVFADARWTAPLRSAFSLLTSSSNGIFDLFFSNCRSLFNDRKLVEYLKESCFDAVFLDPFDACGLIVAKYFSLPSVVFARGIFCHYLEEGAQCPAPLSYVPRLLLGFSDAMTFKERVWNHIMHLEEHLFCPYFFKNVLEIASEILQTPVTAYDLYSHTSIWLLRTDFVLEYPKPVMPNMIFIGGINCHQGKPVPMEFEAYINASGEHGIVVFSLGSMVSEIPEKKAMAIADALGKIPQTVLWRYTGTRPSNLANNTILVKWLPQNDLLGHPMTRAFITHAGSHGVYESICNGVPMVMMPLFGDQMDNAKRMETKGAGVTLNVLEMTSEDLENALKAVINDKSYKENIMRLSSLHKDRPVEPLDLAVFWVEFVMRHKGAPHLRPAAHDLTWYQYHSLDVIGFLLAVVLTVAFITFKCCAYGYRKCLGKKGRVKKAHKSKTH
Chain of UGT 2B7 (P16662 24-529): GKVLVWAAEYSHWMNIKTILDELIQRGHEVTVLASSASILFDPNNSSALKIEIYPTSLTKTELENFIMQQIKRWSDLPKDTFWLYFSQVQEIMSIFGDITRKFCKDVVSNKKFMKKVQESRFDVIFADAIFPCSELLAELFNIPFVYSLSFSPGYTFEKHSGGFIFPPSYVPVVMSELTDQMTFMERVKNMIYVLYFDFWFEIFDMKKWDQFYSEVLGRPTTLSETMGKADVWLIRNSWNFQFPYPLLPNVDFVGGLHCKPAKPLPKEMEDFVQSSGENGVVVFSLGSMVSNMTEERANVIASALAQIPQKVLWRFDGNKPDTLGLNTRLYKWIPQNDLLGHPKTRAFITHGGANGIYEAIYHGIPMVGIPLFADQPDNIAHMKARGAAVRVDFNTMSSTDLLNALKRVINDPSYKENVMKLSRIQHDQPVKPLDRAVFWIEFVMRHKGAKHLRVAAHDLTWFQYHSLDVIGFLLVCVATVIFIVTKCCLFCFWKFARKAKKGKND

Row | Compound | % utilization of substrate by UGT 1A1 (UGT 1A1) | % utilization of substrate by UGT 1A10 (UGT 1A10) | utilization of substrate by UGT 1A3 (UGT 1A3) | utilization of substrate by UGT 1A4 (UGT 1A4) | utilization of substrate by UGT 1A6 (UGT 1A6) | utilization of substrate by UGT 1A7 (UGT 1A7) | % utilization of substrate by UGT 1A8 (UGT 1A8) | % utilization of substrate by UGT 1A9 (UGT 1A9) | utilization of substrate by UGT 2B15 (UGT 2B15) | utilization of substrate by UGT 2B17 (UGT 2B17) | utilization of substrate by UGT 2B4 (UGT 2B4) | utilization by tissue microsomes compared with control 1A1 Supersomes [1] | conversion of substrate by intact hepatocytes [2] | % utilization of substrate by UGT 2B7 (UGT 2B7) | utilization (activity) with human liver microsomes versus human renal or intestinal microsomes (human liver microsomes) | utilization (activity) with rat liver microsomes (rat liver microsomes) | utilization (activity) with mouse liver microsomes (mouse liver microsomes)
1 | Cc1cc(O)cc2sc(C#N)nc12 [Compound 3138] | over 50% | over 50% | detectable levels of utilization above background | did not utilize either compound 3138 or 3478 to an appreciable extent | detectable levels of utilization above background | detectable levels of utilization above background | over 50% | over 50% | detectable levels of utilization above background | detectable levels of utilization above background | did not utilize either compound 3138 or 3478 to an appreciable extent | utilized much more of compound 3138 than the control 1A1 Supersomes | Conversion of the PBI 3138 was seen | over 50% | – | – | –
2 | N#Cc1nc2ccc(NCc3cccc(N)c3)cc2s1 [Compound 3165] | – | – | – | only utilized by UGT 1A4 | – | – | – | to a lesser extent | – | – | – | – | – | – | Activity was much higher for human liver microsomes | Activity was also seen | Activity was also seen
